Measured values taken from publication PMC12501029, “Discovery of a CNS active GSK3 degrader using orthogonally reactive linker screening” (Nature Communications, 2025).

Key:
Assay type in all cases: in vitro ADME
[1] = Plasma protein binding, equilibrium dialysis, human; conditions: 5 h dialysis, read-out: Plasma Protein Binding (Fu) Hu
Protocol: (§1) A 96-well equilibrium dialysis apparatus was used to determine the free fraction in plasma for each compound (HT Dialysis LLC, Gales Ferry, CT). Membranes (12–14 kDA cut-off) were conditioned in deionised water for 60 min, followed by conditioning in 80:20 deionised water: ethanol for 20 min, and then rinsed in isotonic buffer before use. Female CD1 mouse, Male rat Han Wistar and human plasma was removed from the freezer and allowed to thaw on the day of experiment. Thawed plasma was then centrifuged (Allegra X12-R, Beckman Coulter, USA), spiked with test compound (final concentration 10 μg/mL), and 150 μL aliquots (n = 6 replicate determinations) loaded into the 96-well equilibrium dialysis plate. Dialysis vs isotonic buffer (150 μL) was carried out for 5 h in a temperature-controlled incubator at ca. 37 °C (Barworld Scientific Ltd, UK) using an orbital microplate shaker at 100 revolutions/minute (Barworld Scientific Ltd, UK). At the end of the incubation period, 50 μL aliquots of plasma or buffer were transferred to a 96-well 2.1 mL Waters ^TM plate and the composition in each well balanced with control fluid (50 μL), such that the volume of buffer to plasma is the same. […] All samples were analysed by UPLC-MS/MS. The unbound fraction was determined as the ratio of the peak area in buffer to that in plasma.

[2] = Plasma protein binding, equilibrium dialysis, rat; conditions: male, Han Wistar, 5 h dialysis, read-out: Plasma Protein Binding (Fu) Rat
Protocol: as §1

[3] = Plasma protein binding, equilibrium dialysis, mouse; conditions: female, CD1, mouse
Protocol: A 96-well equilibrium dialysis apparatus was used to determine the free fraction in plasma for each compound (HT Dialysis LLC, Gales Ferry, CT). Membranes (12–14 kDA cut-off) were conditioned in deionised water for 60 min, followed by conditioning in 80:20 deionised water: ethanol for 20 min, and then rinsed in isotonic buffer before use. Female CD1 mouse, Male rat Han Wistar and human plasma was removed from the freezer and allowed to thaw on the day of experiment. Thawed plasma was then centrifuged (Allegra X12-R, Beckman Coulter, USA), spiked with test compound (final concentration 10 μg/mL), and 150 μL aliquots (n = 6 replicate determinations) loaded into the 96-well equilibrium dialysis plate. Dialysis vs isotonic buffer (150 μL) was carried out for 5 h in a temperature-controlled incubator at ca. 37 °C (Barworld Scientific Ltd, UK) using an orbital microplate shaker at 100 revolutions/minute (Barworld Scientific Ltd, UK). At the end of the incubation period, 50 μL aliquots of plasma or buffer were transferred to a 96-well 2.1 mL Waters ^TM plate and the composition in each well balanced with control fluid (50 μL), such that the volume of buffer to plasma is the same. Sample extraction was performed by the addition of 200 μL of acetonitrile containing an appropriate internal standard. Samples were allowed to mix for 1 min and then centrifuged at 3000 rpm in 96-well blocks for 15 min (Allegra X12-R, Beckman Coulter, USA), after which 150 μL of supernatant was removed to 50 μL of water. All samples were analysed by UPLC-MS/MS. The unbound fraction was determined as the ratio of the peak area in buffer to that in plasma.

[4] = 10 μg/mL, 5 h dialysis, read-out: Plasma Protein Binding (Fu) Mu

Compound | fraction unbound at 5 h, 10 μg/mL [1] | fraction unbound at 5 h, 10 μg/mL [2] | fraction unbound at 5 h, 10 μg/mL [3, 4] | fraction unbound at 5 h, 10 μg/mL ([3]; equilibrium dialysis, read-out: unbound fraction in mouse plasma)
Cn1nc(N2CCC(=O)NC2=O)c2ccc(CN3CCN(Cc4ccc(-c5cn(-c6ccc(-c7cn8nccc(C(=O)Nc9cnccc9N9CCOCC9)c8n7)cc6)nn5)nc4)CC3)cc21 [compound 24] | 0.0072 | 0.00064 | 0.0052 | 0.005
Cn1nc(N2CCC(=O)NC2=O)c2ccc(CN3CCN(CCCc4cn(-c5ccc(-c6cn7nccc(C(=O)Nc8cnccc8N8CCOCC8)c7n6)cc5)nn4)CC3)cc21 [compound 26] | 0.05 | 0.01 | 0.021 | –
